Assay results reported in patent publication US12521441B2, “Modified IL-2 polypeptides and uses thereof” (Bright Peak Therapeutics AG, priority 2020, dated 2026).

Tests used:
[1] = biological target: T1, human IL2 receptor alpha (CD25) (Homo sapiens, UniProt P01589); assay: Surface plasmon resonance binding to IL-2R alpha monomer subunit; details: SPR
T1 construct: purchased Abcam Ab221397
T1 sequence (P01589 22-272): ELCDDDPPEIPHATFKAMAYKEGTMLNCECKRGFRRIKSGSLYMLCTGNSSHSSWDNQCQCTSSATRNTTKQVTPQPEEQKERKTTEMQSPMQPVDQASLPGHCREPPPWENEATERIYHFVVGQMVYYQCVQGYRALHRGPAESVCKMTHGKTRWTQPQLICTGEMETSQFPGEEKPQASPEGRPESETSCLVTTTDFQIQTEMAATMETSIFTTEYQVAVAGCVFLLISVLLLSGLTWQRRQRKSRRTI
Procedure: (§1) The interaction of the IL-2 polypeptides with human IL-2 receptor subunits were measured with Surface Plasmon Resonance (SPR) technology at Crelux, a Wuxi AppTec company, Martinsried, GER. For these studies, anti-His antibodies were bound by amine coupling onto a CMS chip to capture 42 nM of His tagged human IL2 receptor alpha (Abcam, Ab221397) or of His tagged human IL2 receptor beta (Abcam, Ab174003). In other settings, 42 nM of alpha and beta IL2 receptors were mixed and pre-incubated for 30 min before capture of the alpha/beta heterodimer IL2 receptor.
(§2) Regeneration of the surface back to amine coupled anti His antibody was done after every concentration of analyte. To measure the protein association to the receptors, the samples were injected with a flow rate of 50 ul/min for 30 s, followed by 180s buffer only to detect the dissociation. The used running buffer was 1×PBS with 0.05% Tween20. The relative response units (RU, Y-axis) are plotted against time (s, X-axis) and analyzed in a kinetic 1:1 binding model for the monomer receptor binding and with a kinetic heterogenous ligand fit model for the alpha/beta heterodimer binding.
NT indicates the IL-2 polypeptide as not tested.

[2] = biological target: T2, human IL2 receptor beta (CD122) (Homo sapiens, UniProt P14784); assay: Surface plasmon resonance binding to IL-2R beta monomer subunit; details: SPR
T2 construct: purchased Abcam Ab174003
T2 sequence (P14784 27-551): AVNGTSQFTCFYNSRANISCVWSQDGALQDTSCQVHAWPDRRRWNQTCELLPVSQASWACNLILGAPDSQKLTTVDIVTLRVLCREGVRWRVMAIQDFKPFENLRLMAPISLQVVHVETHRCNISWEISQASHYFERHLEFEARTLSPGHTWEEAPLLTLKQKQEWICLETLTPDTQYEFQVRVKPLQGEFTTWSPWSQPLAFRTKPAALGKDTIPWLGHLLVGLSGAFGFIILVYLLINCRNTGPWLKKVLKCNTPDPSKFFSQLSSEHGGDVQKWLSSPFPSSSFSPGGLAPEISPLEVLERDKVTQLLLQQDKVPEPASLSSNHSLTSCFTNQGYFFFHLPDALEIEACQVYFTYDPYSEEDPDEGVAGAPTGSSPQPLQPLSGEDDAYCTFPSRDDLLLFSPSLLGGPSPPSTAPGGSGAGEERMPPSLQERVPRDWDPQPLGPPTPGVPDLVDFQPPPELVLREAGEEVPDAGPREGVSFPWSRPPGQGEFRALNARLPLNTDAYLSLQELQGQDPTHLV
Procedure: as §1, §2
NT indicates the IL-2 polypeptide was not tested.

[3] = mouse, in vivo, iv, 0.8 mg/kg
Procedure: A single-dose pharmacokinetic/pharmacodynamic experiment was performed in mice. Naïve, 6-8 weeks old, C57Bl/6 mice (Shanghai SLAC Laboratory Animal Co., LTD, Shanghai, China) received a single bolus intravenous (i.v.) injection of 52 nmoles/kg wild type or of modified IL-2 polypeptides. […] At indicated time points, blood samples were collected in the presence of EDTA either via tail vein sampling or via cardiac puncture (end-point).
Blood samples were immediately processed by centrifugation. Plasma samples were cryopreserved at −80° C. until bioanalysis.
Bioanalysis of plasma samples was performed using a qualified human IL-2 LegendPlex bead assay (Biolegend, #740717, #740368, #740758). Concentrations of wild type and of modified IL-2 polypeptides and the internal standard in samples derived from plasma were determined using human IL-2 LegendPlex bead assay. PK data were subjected to a non-compartmental pharmacokinetic analysis by using the Phoenix WinNonlin software (version 6.3, Pharsight, Mountain View, CA). The linear/log trapezoidal rule was applied in obtaining the PK parameters.
The PK parameters were determined by means of non-compartmental analysis (NCA) using R package “PK”. The area under plasma concentration-time curves (AUC0-last) were calculated using the linear trapezoidal rule on the arithmetic means at the different time points while the extrapolation necessary for the AUC0-inf and AUMC 0-Inf was achieved assuming an exponential decay on the last 3 time points.

[4] = tested on: Treg cells (CD4+, CD25Hi, FoxP3+); assay: pStat5 induction in human primary pan T-cells, T-Reg subset; format: cell-based
Procedure: (§3) An experiment was performed to determine the effect of various IL-2 polypeptides on human T-cell populations. Primary pan T-cells (CD4+, CD8+ and Tregs T cells) were obtained from healthy donor buffy coat by peripheral blood mononuclear cell (PBMC) purification using ficoll gradient centrifugation followed by negative selection with magnetic beads and then cryopreserved until use. […] After incubation, cells were fixed and permeabilized using the Transcription Factor Phospho Buffer kit followed by a surface and intracellular immunostaining for CD4, CD8, CD25, FoxP3, CD45RA and pStat5 to enable cell subset identification and measurement of Stat5 (signal transducer and activator of transcription 5) phosphorylation levels. The FACS (fluorescence activated cell sorting) measurement was done either with a NovoCyte or a Quanteon Flow Cytometer from Acea.
(§4) pStat5 MFI ([…] fluorescence intensity) signals for the T-cell subsets shown in Table 12 were plotted against concentrations of aldesleukin or of modified IL-2 polypeptides. Half maximal effective concentration (EC50) was calculated based on a variable slope, four parameter analysis using GraphPad PRISM software.

[5] = tested on: CD8+ Teff (CD3+, CD8+); assay: Single-dose pharmacodynamics in mice, CD8+ Teff (pSTAT5, Ki67, frequency); format: in vivo, C57Bl/6 mice; details: for CD8+ % of pSTAT5 positive cells: 1 h after injection
Procedure: (§5) Cell pellets were treated with 1×Lyse/Fix buffer (BD Bioscience, 558050) during 10 min. […] Cells were then permeabilized using cold BD Perm Buffer III and stained with antibodies against either Ki67, Siglec-F, CD4, CD8, FoxP3, CD62L, CD44 or pSTAT5. The FACS (fluorescence activated cell sorting) measurement was done with a Fortessa X-20 Flow Cytometer from BD. For each cell subset indicated below in Table 14, the percentage of pSTAT5 positive cells, and percentage of Ki67 positive cells, cell counts, and cell frequency was determined. [table]

[6] = biological target: T3, alpha/beta heterodimer IL2 receptor (Homo sapiens, UniProt P14784); assay: Surface plasmon resonance binding to IL2R alpha/beta heterodimer
T3 construct: purchased Abcam Ab221397; Ab174003
T3 sequence (P14784 27-239 limits assumed): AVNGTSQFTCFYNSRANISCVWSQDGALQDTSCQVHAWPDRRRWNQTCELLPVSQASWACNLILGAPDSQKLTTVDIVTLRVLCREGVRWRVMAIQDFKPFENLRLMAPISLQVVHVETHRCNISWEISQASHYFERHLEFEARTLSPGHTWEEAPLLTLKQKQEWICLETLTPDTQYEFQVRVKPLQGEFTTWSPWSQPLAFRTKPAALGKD
Procedure: as §1, §2
Additional surface plasmon resonance experiments were performed to determine the binding characteristics of the modified IL-2 polypeptides with IL2R alpha/beta heterodimers. The experiments were performed as indicated above, but the monomeric subunits were replaced with the IL2R heterodimers. […] In the table below, NT indicates the composition was not tested.
The secondary interactions between IL-2R heterodimers and the modified IL-2 polypeptides were also measured. […] In the table below, NT indicates the composition was not tested.

[7] = tested on: Tregs (CD4+, FoxP3+, CD25Hi); assay: Single-dose pharmacodynamics in mice, Tregs (pSTAT5, Ki67, frequency); format: in vivo, C57Bl/6 mice; details: for Tregs % of pSTAT5 positive cells / Ratio Tregs/CD8+: 1 h after injection; for Ratio Tregs/CD8+: pSTAT5 positive cells
Procedure: as §5

[8] = tested on: CD8 Teff cells (CD8+); assay: pStat5 induction in human primary pan T-cells, CD8 Teff subset; format: cell-based
Procedure: as §3, §4

[9] = mice, 0.8 mg/kg, at peak time point

## Aldesleukin: aldesleukin (SEQ ID NO: 2), comparator IL-2
[1]; Alpha (CD25) monomer
  Ka: 6.74e+06 M⁻¹ s⁻¹
  dissociation rate constant (koff): 0.154 s⁻¹
[1]; read-out: observed Kd with IL-2Rα
  Kd: 23 nM
[2]; Beta (CD122) monomer
  Ka: 319000 M⁻¹ s⁻¹
  koff (dissociation rate constant): 0.289 s⁻¹
[2]; as stated in text (FIG. 3), read-out: Kd, β subunit of the IL-2 receptor
  Kd: ~900 nM
[3]
  AUC0-last: 1227 ng·h/mL
  AUCD: 1534 (ng/mL*h)*(mg/kg)
  Cl: 10.85 mL/min/kg
  MRTlast: 36.6 min
  T1/2: 20.8 min
[4]; pStat5 MFI, 20 min to 40 min stimulation, read-out: Tregs EC50
  EC50: 0.019 nM
[4]; pStat5 dose response curves
  potency in inducing Treg cells versus Teff cells (in words): substantially more potent in inducing Treg cells than Teff cells
[5]; 0.8 mg/kg, at peak time point
  CD8+ % of CD8+ within CD3+: 32.1 ± 3^ %
  CD8+ % of Ki67+ positive cells: 19.6 ± 3^ %
[5]; 0.01 mg/kg
  CD8+ % of pSTAT5 positive cells: 21.3 ± 6.7%
[5]; 0.03 mg/kg
  CD8+ % of pSTAT5 positive cells: 31.3 ± 6.2%
[5]; 0.1 mg/kg
  CD8+ % of pSTAT5 positive cells: 29.6 ± 4.4%
[5]; 0.3 mg/kg
  CD8+ % of pSTAT5 positive cells: 63.2 ± 9.0%
[5]; 0.8 mg/kg
  CD8+ % of pSTAT5 positive cells: 74.1 ± 11%
[5]; Ki67+ cells, 0.8 mg/kg
  Timepoint at Peak Teff: 48 h
[5]; frequency within CD3+, 0.8 mg/kg
  Timepoint at Peak Teff: 36 h
[6]; primary interaction
  Ka: 8.01e+06 M⁻¹ s⁻¹
  dissociation rate constant (koff, 1/s): 0.00175 s⁻¹
[6]; secondary interaction
  Ka: 5.13e+06 M⁻¹ s⁻¹
[7]; Ki67+ cells, mice, 0.8 mg/kg
  Timepoint at Peak Tregs: 20 h
[7]; frequency within CD3+, mice, 0.8 mg/kg
  Timepoint at Peak Tregs: 20 h
[7]; [9]
  Tregs % of Ki67+ positive cells: 28.3 ± 3.7%
  Tregs % of Tregs within CD3+: 3.52 ± 0.4%
[7]; mice, 0.01 mg/kg
  Tregs % of pSTAT5 positive cells: 81.0 ± 5.8%
[7]; mice, 0.03 mg/kg
  Tregs % of pSTAT5 positive cells: 86.9 ± 5.2%
[7]; mice, 0.1 mg/kg
  Tregs % of pSTAT5 positive cells: 91.1 ± 2.9%
[7]; mice, 0.3 mg/kg
  Tregs % of pSTAT5 positive cells: 96.2 ± 1.3%
[7]; mice, 0.8 mg/kg
  Tregs % of pSTAT5 positive cells: 93.3 ± 3.8%
[7]; 0.01 mg/kg
  Ratio Tregs/CD8+: 3.8
[7]; 0.03 mg/kg
  Ratio Tregs/CD8+: 2.8
[7]; 0.1 mg/kg
  Ratio Tregs/CD8+: 3.1
[7]; 0.3 mg/kg
  Ratio Tregs/CD8+: 1.5
[7]; 0.8 mg/kg
  Ratio Tregs/CD8+: 1.3
[8]; pStat5 MFI, 20 min to 40 min stimulation
  EC50: 9.07 nM
[8]; ratio of CD8+ EC50 to Tregs EC50
  CD8/Tregs: 477
